Source: ChEMBL document CHEMBL1153648, “1,4-Benzodiazepin-2-one derived neurokinin-1 receptor antagonists” (Bioorg Med Chem Lett, 1997)

How the values were obtained:
[1] = biological target: T1, Substance-P receptor (Homo sapiens, UniProt P25103); test: Tested for affinity against NK-1(Neurokinin-1) receptor expressed as pKi
[2] = biological target: T1, Substance-P receptor; test: Concentration required for 50% inhibition of neurokinin-1 receptor
[3] = biological target: T2, Cholecystokinin receptor type A (Homo sapiens, UniProt P32238); test: Concentration required for 50% inhibition of cholecystokinin A(CCK A)
T2 sequence (P32238 whole entry): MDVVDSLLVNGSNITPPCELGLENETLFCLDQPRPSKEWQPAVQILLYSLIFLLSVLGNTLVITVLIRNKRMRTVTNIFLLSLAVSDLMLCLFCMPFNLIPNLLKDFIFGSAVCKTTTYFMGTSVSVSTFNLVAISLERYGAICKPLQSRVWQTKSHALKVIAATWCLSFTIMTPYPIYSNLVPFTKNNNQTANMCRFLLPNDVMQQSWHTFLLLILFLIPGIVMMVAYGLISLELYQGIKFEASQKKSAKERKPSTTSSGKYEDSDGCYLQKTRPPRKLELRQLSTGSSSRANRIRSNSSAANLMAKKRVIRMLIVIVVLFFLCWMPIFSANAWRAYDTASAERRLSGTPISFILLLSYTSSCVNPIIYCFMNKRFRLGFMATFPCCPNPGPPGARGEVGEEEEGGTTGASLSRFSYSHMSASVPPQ

T1 sequence (P25103 whole entry): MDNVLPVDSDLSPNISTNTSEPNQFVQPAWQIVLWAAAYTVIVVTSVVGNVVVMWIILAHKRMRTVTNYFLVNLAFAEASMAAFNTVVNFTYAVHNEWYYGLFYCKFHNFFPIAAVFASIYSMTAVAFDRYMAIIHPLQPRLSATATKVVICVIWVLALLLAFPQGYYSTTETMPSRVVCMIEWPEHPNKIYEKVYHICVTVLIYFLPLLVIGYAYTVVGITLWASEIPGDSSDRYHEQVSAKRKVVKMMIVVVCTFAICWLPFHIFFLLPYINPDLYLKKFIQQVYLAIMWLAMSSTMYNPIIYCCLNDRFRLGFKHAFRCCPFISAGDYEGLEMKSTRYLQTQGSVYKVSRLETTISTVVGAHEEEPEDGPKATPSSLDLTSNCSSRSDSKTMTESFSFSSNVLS

Structure (SMILES)	Ki [1] [nM]	also measured
CN(Cc1cc(C(F)(F)F)cc(C(F)(F)F)c1)C(=O)N1CC(=O)Nc2ccccc2C1c1ccccc1 (stereo not given)	10	–
CC(=O)NC(Cc1c[nH]c2ccccc12)C(=O)N(C)Cc1ccccc1 (stereo not given)	–	IC50 [2]: 750 nM
CC1c2ccccc2NC(=O)CN1C(=O)N(C)Cc1cc(C(F)(F)F)cc(C(F)(F)F)c1 (stereo not given)	31.6	–
CC1c2ccccc2NCCN1C(=O)N(C)Cc1cc(C(F)(F)F)cc(C(F)(F)F)c1 (stereo not given)	39.8	–
CCCCCN(CCCCC)C(=O)C(Cc1c[nH]c2ccccc12)NC(=O)c1ccc(Cl)c(Cl)c1 (stereo not given)	–	IC50 [3]: 190 nM
O=C1CN(C(=O)NCc2cc(C(F)(F)F)cc(C(F)(F)F)c2)C(c2ccccc2)c2ccccc2N1 (stereo not given)	631	–

Continued, in another order:

Ki [1] [nM]	Structure (SMILES)	also measured
794	CN(Cc1cc(C(F)(F)F)cc(C(F)(F)F)c1)C(=O)N1CC(=O)Nc2ccccc2C1CN1CCOCC1 (stereo not given)	–
316	COC(=O)C1c2ccccc2NC(=O)CN1C(=O)N(C)Cc1cc(C(F)(F)F)cc(C(F)(F)F)c1 (stereo not given)	–
1000	CC1c2ccccc2N(C)C(=O)CN1C(=O)N(C)Cc1cc(C(F)(F)F)cc(C(F)(F)F)c1 (stereo not given)	–
1000	CN(Cc1ccccc1)C(=O)N1CC(=O)Nc2ccccc2C1c1ccccc1 (stereo not given)	–
